Source: patent US20070117743A1, “New antitumoral compounds” (priority 2003, published 2007)
Like-named read-outs stand apart in the source and are kept apart here. Where a SMILES comes first, the peptide text is derived from it. Bridges are numbered along the chain shown (N, C = ends). [ ]: non-standard residue; d: D form. The star is where a group is joined. Hexanoyl(4S-Me) = CC[C@H](C)CCC(=O)*; d(aIle) = CC[C@H](C)[C@@H](N)C(=O)O; d(aThr) = C[C@@H](O)[C@@H](N)C(=O)O; Tic = O=C(O)[C@@H]1Cc2ccccc2CN1; Orn = NCCC[C@H](N)C(=O)O; Dhb = C/C=C(\N)C(=O)O

Tests used:
Assay type in all cases: cell-based, human
IGROV-1 = assay: SRB colorimetric assay of cell growth and viability, IGROV-1; details: 48 hours exposure
HT-29 = assay: SRB colorimetric assay of cell growth and viability, HT-29; details: 48 hours exposure; for GI50: read-out: GI50 HT-29; for CC50: read-out: LC50 HT-29
IGROV-ET = assay: SRB colorimetric assay of cell growth and viability, IGROV-ET; details: 48 hours exposure; for CC50: read-out: LC50 IGROV-ET
PANC-1 = assay: SRB colorimetric assay of cell growth and viability, PANC-1; details: 48 hours exposure; for CC50: read-out: LC50 PANC-1
HeLa = assay: SRB colorimetric assay of cell growth and viability, HeLa; details: 48 hours exposure; for CC50: read-out: LC50 HELA
SK-BR-3 = assay: SRB colorimetric assay of cell growth and viability, SK-BR-3; details: 48 hours exposure
DU-145 = assay: SRB colorimetric assay of cell growth and viability, DU-145; details: 48 hours exposure
LoVo = assay: SRB colorimetric assay of cell growth and viability, LoVo; details: 48 hours exposure; for CC50: read-out: LC50 LOVO
K-562 = assay: SRB colorimetric assay of cell growth and viability, K-562; details: 48 hours exposure; for CC50: read-out: LC50 K-562
HeLa-APL = assay: SRB colorimetric assay of cell growth and viability, HeLa-APL; details: 48 hours exposure; for CC50: read-out: LC50 HELA-APL
SK-MEL-28 = assay: SRB colorimetric assay of cell growth and viability, SK-MEL-28; details: 48 hours exposure; for CC50: read-out: LC50 MEL-28
LoVo-Dox = assay: SRB colorimetric assay of cell growth and viability, LoVo-Dox; details: 48 hours exposure; for CC50: read-out: LC50 LOVO-DOX
Method in brief: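 Human tumor cells seeded at 5×10^3/well in RPMI 1640 10% FBS, attached 18 hours, then exposed 48 hours to compound (10 to 10^−8 μg/mL). TCA-fixed, SRB-stained, OD 490 nm; triplicates give GI, TGI and LC values.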

A-549 = assay: SRB colorimetric assay of cell growth and viability, A-549; details: 48 hours exposure; for GI50: read-out: GI50 A-549; for CC50: read-out: LC50 A-549

C/C=C1\NC(=O)[C@@H]2Cc3ccccc3CN2C(=O)[C@@H](C(C)C)NC(=O)[C@@H]([C@@H](C)CC)NC(=O)[C@H](NC(=O)[C@H](NC(=O)[C@H](CCCN)NC(=O)[C@H]2CCCN2C(=O)[C@H](NC(=O)[C@@H](NC(=O)[C@@H](NC(=O)[C@H](NC(=O)CC[C@@H](C)CC)C(C)C)[C@@H](C)O)C(C)C)C(C)C)[C@@H](C)CC)[C@@H](C)OC(=O)[C@H](C(C)C)NC1=O [Compound 77, [Tic^3, (4S)-MeHex^14]-KF] ({Hexanoyl(4S-Me)}-[dV]TV[dV][dP][Orn][d(aIle)][d(aThr)][d(aIle)][dV][Tic][Dhb]V; ester 8-C)
GI50 (IGROV-1; SRB): 1610 nM
LC50 (concentration causing 50% net cell killing) (IGROV-1; SRB): 4260 nM
TGI IGROV (IGROV-1; SRB): 2.62E−06 Molar
TGI HT-29 (HT-29; SRB): 2.21E−06 Molar
GI50 (HT-29; SRB): 1230 nM
CC50 (HT-29; SRB): 3970 nM
GI50 (IGROV-ET; SRB): 1420 nM
TGI IGROV-ET (IGROV-ET; SRB): 2.34E−06 Molar
CC50 (IGROV-ET; SRB): 3860 nM
GI50 (PANC-1; SRB): 6740 nM
TGI PANC-1 (PANC-1; SRB): 6.74E−06 Molar
CC50 (PANC-1; SRB): 6740 nM
GI50 (HeLa; SRB): 1430 nM
TGI HELA (HeLa; SRB): 2.29E−06 Molar
CC50 (HeLa; SRB): 3660 nM
GI50 (SK-BR-3; SRB): 873 nM
LC50 (SK-BR-3; SRB): 5510 nM
TGI SK-BR-3 (SK-BR-3; SRB): 2.19E−06 Molar
GI50 (DU-145; SRB): 3630 nM
LC50 (concentration causing 50% net cell kill) (DU-145; SRB): 6740 nM
TGI DU-145 (DU-145; SRB): 6.71E−06 Molar
GI50 (LoVo; SRB): 913 nM
TGI LOVO (LoVo; SRB): 1.76E−06 Molar
CC50 (LoVo; SRB): 3400 nM
GI50 (K-562; SRB): 17 nM
TGI K-562 (K-562; SRB): 3.99E−06 Molar
CC50 (K-562; SRB): 6710 nM
GI50 (HeLa-APL; SRB): 1570 nM
TGI HELA-APL (HeLa-APL; SRB): 2.53E−06 Molar
CC50 (HeLa-APL; SRB): 4070 nM
GI50 (SK-MEL-28; SRB): 1580 nM
TGI MEL-28 (SK-MEL-28; SRB): 3.41E−06 Molar
CC50 (SK-MEL-28; SRB): 6710 nM
GI50 (LoVo-Dox; SRB): 271 nM
TGI LOVO-DOX (LoVo-Dox; SRB): 8.32E−07 Molar
CC50 (LoVo-Dox; SRB): 2140 nM
TGI A-549 (A-549; SRB): 2.58E−06 Molar
GI50 (A-549; SRB): 1520 nM
CC50 (A-549; SRB): 4400 nM

C/C=C1\NC(=O)[C@H](Cc2ccc(Cl)cc2)NC(=O)[C@@H](C(C)C)NC(=O)[C@@H]([C@@H](C)CC)NC(=O)[C@H](NC(=O)[C@H](NC(=O)[C@H](CCCN)NC(=O)[C@H]2CCCN2C(=O)[C@H](NC(=O)[C@@H](NC(=O)[C@@H](NC(=O)[C@H](NC(=O)CCCC(C)C)C(C)C)[C@@H](C)O)C(C)C)C(C)C)[C@@H](C)CC)[C@@H](C)OC(=O)[C@H](C(C)C)NC1=O [Compound 83, [Phe(4-Cl)^3]-KF]
GI50 (IGROV-1; IGROV): 37.1 nM
LC50 (concentration causing 50% net cell killing) (IGROV-1; IGROV): 143 nM
TGI IGROV (IGROV-1; IGROV): 7.69E−08 Molar
TGI HT-29 (HT-29; HT-29): 8.24E−08 Molar
GI50 (HT-29; HT-29): 36.8 nM
CC50 (HT-29; HT-29): 172 nM
GI50 (IGROV-ET; IGROV-ET): 65.2 nM
TGI IGROV-ET (IGROV-ET; IGROV-ET): 1.21E−07 Molar
CC50 (IGROV-ET; IGROV-ET): 587 nM
GI50 (PANC-1; PANC-1): 658 nM
TGI PANC-1 (PANC-1; PANC-1): 1.07E−06 Molar
CC50 (PANC-1; PANC-1): 1750 nM
GI50 (HeLa; HELA): 51.9 nM
TGI HELA (HeLa; HELA): 2.00E−07 Molar
CC50 (HeLa; HELA): 475 nM
GI50 (SK-BR-3; SK-BR-3): 34.2 nM
LC50 (SK-BR-3; SK-BR-3): 155 nM
TGI SK-BR-3 (SK-BR-3; SK-BR-3): 5.29E−08 Molar
GI50 (DU-145; DU-145): 83 nM
LC50 (concentration causing 50% net cell kill) (DU-145; DU-145): 461 nM
TGI DU-145 (DU-145; DU-145): 2.07E−07 Molar
GI50 (LoVo; LOVO): 30.3 nM
TGI LOVO (LoVo; LOVO): 6.27E−08 Molar
CC50 (LoVo; LOVO): 165 nM
GI50 (K-562; K-562): 333 nM
TGI K-562 (K-562; K-562): 5.08E−07 Molar
CC50 (K-562; K-562): 1130 nM
GI50 (HeLa-APL; HELA-APL): 96.5 nM
TGI HELA-APL (HeLa-APL; HELA-APL): 2.28E−07 Molar
CC50 (HeLa-APL; HELA-APL): 470 nM
GI50 (SK-MEL-28; MEL-28): 206 nM
TGI MEL-28 (SK-MEL-28; MEL-28): 3.40E−07 Molar
CC50 (SK-MEL-28; MEL-28): 561 nM
GI50 (LoVo-Dox; LOVO-DOX): 38.2 nM
TGI LOVO-DOX (LoVo-Dox; LOVO-DOX): 7.81E−08 Molar
CC50 (LoVo-Dox; LOVO-DOX): 1840 nM
TGI A-549 (A-549; A-549): 3.62E−07 Molar
GI50 (A-549; A-549): 221 nM
CC50 (A-549; A-549): 593 nM
